Assay results: PubChem BioAssay AID248 (DTP/NCI, 2004)
Several values for one entry are separate records, joined by “and”; a condition that tells them apart may be missing. Equal entries are not always repeated. Toxic doses and inconclusive results are not listed.

Tested on: L1210 leukemia ip in BDF1 mice, survival T/C
Assay: NCI In Vivo Anticancer Drug Screen. Data for tumor model L1210 Leukemia (intraperitoneal) in B6D2F1 (BDF1) mice
Settings: endpoint: mean survival time, higher = longer survival
In short: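 Read-out is survival time, reported as the treated-group measurement over the vehicle-control measurement.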

[1] = dose: 100.0 mg/kg/injection, schedule: Q01DX009 (ip), vehicle: saline
[2] = dose: 100.0 mg/kg/injection, schedule: Q04DX003 (ip), vehicle: saline
[3] = dose: 200.0 mg/kg/injection, schedule: Q01DX009 (ip), vehicle: saline
[4] = dose: 200.0 mg/kg/injection, schedule: Q04DX003 (ip), vehicle: saline
[5] = dose: 400.0 mg/kg/injection, schedule: Q04DX003 (ip), vehicle: saline
[6] = dose: 100.0 mg/kg/injection, schedule: Q01DX009 (ip), vehicle: Klucel (hydroxypropylcellulose) (HPC)
[7] = dose: 100.0 mg/kg/injection, schedule: Q04DX003 (ip), vehicle: Klucel (hydroxypropylcellulose) (HPC)
[8] = dose: 200.0 mg/kg/injection, schedule: Q01DX009 (ip), vehicle: Klucel (hydroxypropylcellulose) (HPC)
[9] = dose: 200.0 mg/kg/injection, schedule: Q04DX003 (ip), vehicle: Klucel (hydroxypropylcellulose) (HPC)
[10] = dose: 400.0 mg/kg/injection, schedule: Q01DX009 (ip), vehicle: Klucel (hydroxypropylcellulose) (HPC)
[11] = dose: 400.0 mg/kg/injection, schedule: Q04DX003 (ip), vehicle: Klucel (hydroxypropylcellulose) (HPC)
[12] = dose: 100.0 mg/kg/injection, schedule: Q01DX009 (ip), vehicle: saline with Tween-80
[13] = dose: 200.0 mg/kg/injection, schedule: Q01DX009 (ip), vehicle: saline with Tween-80
[14] = dose: 100.0 mg/kg/injection, schedule: Q01DX001 (ip), vehicle: Klucel (hydroxypropylcellulose) (HPC)
[15] = dose: 400.0 mg/kg/injection, schedule: Q01DX001 (ip), vehicle: Klucel (hydroxypropylcellulose) (HPC)
[16] = dose: 150.0 mg/kg/injection, schedule: Q01DX009 (ip), vehicle: Klucel (hydroxypropylcellulose) (HPC)
[17] = dose: 100.0 mg/kg/injection, schedule: Q01DX001 (ip), vehicle: carboxymethylcellulose (CMC)
[18] = dose: 200.0 mg/kg/injection, schedule: Q01DX001 (ip), vehicle: carboxymethylcellulose (CMC)
[19] = dose: 400.0 mg/kg/injection, schedule: Q01DX001 (ip), vehicle: carboxymethylcellulose (CMC)
[20] = dose: 100.0 mg/kg/injection, schedule: Q04DX002 (ip), vehicle: saline with Tween-80
[21] = dose: 200.0 mg/kg/injection, schedule: Q04DX002 (ip), vehicle: saline with Tween-80
[22] = dose: 400.0 mg/kg/injection, schedule: Q04DX002 (ip), vehicle: saline with Tween-80
[23] = dose: 100.0 mg/kg/injection, schedule: Q01DX001 (ip), vehicle: saline with Tween-80
[24] = dose: 200.0 mg/kg/injection, schedule: Q01DX001 (ip), vehicle: saline with Tween-80
[25] = dose: 400.0 mg/kg/injection, schedule: Q01DX001 (ip), vehicle: saline with Tween-80
[26] = dose: 400.0 mg/kg/injection, schedule: Q01DX009 (ip), vehicle: saline with Tween-80
[27] = dose: 50.0 mg/kg/injection, schedule: Q01DX009 (ip), vehicle: Klucel (hydroxypropylcellulose) (HPC)
[28] = dose: 25.0 mg/kg/injection, schedule: Q01DX009 (ip), vehicle: Klucel (hydroxypropylcellulose) (HPC)
[29] = dose: 100.0 mg/kg/injection, schedule: Q04DX003 (ip), vehicle: saline with Tween-80
[30] = dose: 200.0 mg/kg/injection, schedule: Q04DX003 (ip), vehicle: saline with Tween-80
[31] = dose: 400.0 mg/kg/injection, schedule: Q04DX003 (ip), vehicle: saline with Tween-80
[32] = dose: 50.0 mg/kg/injection, schedule: Q01DX009 (ip), vehicle: saline with Tween-80

CCCCNC(C)(C)C(SS)c1ccc(Cl)cc1 (configuration not stated)
T/C (dose: 50.0 mg/kg/injection, schedule: Q01DX009 (ip), vehicle: other): 94 % of control
T/C (dose: 100.0 mg/kg/injection, schedule: Q01DX009 (ip), vehicle: other): 92 % of control

Nc1nc2c(c(-c3ccc(Cl)cc3)n1)CN(c1ccc(Br)cc1)C2=O
T/C (dose: 50.0 mg/kg/injection, schedule: Q01DX009 (ip), vehicle: saline): 95 % of control
T/C [1]: 108 % of control
T/C [2]: 97 % of control
T/C [3]: 92 % of control
T/C [4]: 100 % of control
T/C [5]: 92 % of control

CCOC(=O)c1ccc(=O)[nH]c1
T/C [6]: 102 % of control
T/C [1]: 88 % of control
T/C [7]: 96 % of control
T/C [2]: 116 % of control and 100 % of control
T/C [8]: 100 % of control
T/C [3]: 96 % of control
T/C [9]: 98 % of control
T/C [4]: 101 % of control and 100 % of control
T/C [10]: 95 % of control
T/C (dose: 400.0 mg/kg/injection, schedule: Q01DX009 (ip), vehicle: saline): 93 % of control
T/C [11]: 90 % of control
T/C [5]: 104 % of control and 96 % of control

CCOC(C)C1C2CCCCC21 (configuration not stated)
T/C [12]: 101 % of control
T/C [13]: 92 % of control

Nc1cc(=S)c2[nH]cnc2[nH]1
T/C [14]: 92 % of control
T/C [15]: 88 % of control

Cc1cn(CC(C)C)c(=O)n(-c2ccccc2)c1=O
T/C (dose: 100.0 mg/kg/injection, schedule: Q01DX Z (ip), vehicle: methylcellulose (MC)): 95 % of control

Cc1cc(C(=O)O)c(C)n1-c1ccccc1
T/C (dose: 75.0 mg/kg/injection, schedule: Q01DX009 (ip), vehicle: Klucel (hydroxypropylcellulose) (HPC)): 100 % of control
T/C [16]: 95 % of control
T/C (dose: 300.0 mg/kg/injection, schedule: Q01DX009 (ip), vehicle: Klucel (hydroxypropylcellulose) (HPC)): 92 % of control

CN1CCC(O)(c2ccc(F)cc2)C(C(=O)c2ccc(F)cc2)C1 (configuration not stated)
T/C (dose: 50.0 mg/kg/injection, schedule: Q01DX001 (ip), vehicle: carboxymethylcellulose (CMC)): 100 % of control
T/C [17]: 100 % of control
T/C [18]: 94 % of control
T/C [19]: 94 % of control

O=C(C1CC1c1ccccc1)N1CCC(O)(c2ccccc2)CC1 (configuration not stated)
T/C [20]: 103 % of control
T/C [21]: 100 % of control
T/C [22]: 97 % of control

Cc1cc([N+](=O)[O-])c(N)c([N+](=O)[O-])c1
T/C [6]: 98 % of control
T/C [7]: 105 % of control
T/C [8]: 92 % of control
T/C [9]: 105 % of control
T/C [10]: 97 % of control
T/C [11]: 105 % of control

CSc1ccc(NC(=O)C(C)Oc2ccccc2)cc1 (configuration not stated)
T/C (dose: 50.0 mg/kg/injection, schedule: Q01DX001 (ip), vehicle: saline with Tween-80): 95 % of control
T/C [23]: 87 % of control and 92 % of control
T/C [12]: 97 % of control and 102 % of control
T/C [20]: 94 % of control and 96 % of control
T/C [24]: 87 % of control
T/C [13]: 93 % of control and 102 % of control
T/C [21]: 96 % of control and 105 % of control
T/C [25]: 87 % of control and 90 % of control
T/C [26]: 95 % of control and 98 % of control
T/C [22]: 96 % of control and 101 % of control

Nc1cc(Cl)nc(-c2ccccc2)n1
T/C [27]: 98 % of control
T/C [6]: 98 % of control
T/C [8]: 102 % of control

CCOC(=O)CCC(NC(=O)c1cc(Cl)c(N(CC)Cc2cnc3nc(N)nc(N)c3n2)c(Cl)c1)C(=O)OCC (configuration not stated)
T/C [28]: 179 % of control

CC(=O)Oc1cc2ccccc2cc1C(C)C
T/C [12]: 98 % of control
T/C [29]: 103 % of control
T/C [13]: 98 % of control
T/C [30]: 95 % of control
T/C [26]: 88 % of control
T/C [31]: 90 % of control

CC(C)(C)OC(=O)N/N=C/c1ccc([N+](=O)[O-])s1
T/C [29]: 94 % of control
T/C [30]: 98 % of control
T/C [31]: 89 % of control

CCOc1ccc(O)cc1
T/C (dose: 100.0 mg/kg/injection, schedule: Q04DX002 (ip), vehicle: saline + alcohol): 109 % of control
T/C (dose: 200.0 mg/kg/injection, schedule: Q04DX002 (ip), vehicle: saline + alcohol): 100 % of control

CCCCCCCCN(C)N=Nc1ccc(Cl)cc1C(=O)O
T/C [16]: 117 % of control

CCC(C)c1ccc(-c2ccc(OC)cc2)cc1 (configuration not stated)
T/C [29]: 86 % of control
T/C [30]: 86 % of control

O=C1OC(/C=C/c2ccccc2)=NC/1=C\c1ccc(O)cc1
T/C [20]: 104 % of control
T/C [21]: 93 % of control
T/C [22]: 93 % of control

Cc1cc(Cl)n[nH]c1=O
T/C (dose: 100.0 mg/kg/injection, schedule: Q01DX001 (ip), vehicle: saline): 105 % of control
T/C (dose: 200.0 mg/kg/injection, schedule: Q01DX001 (ip), vehicle: saline): 104 % of control
T/C (dose: 400.0 mg/kg/injection, schedule: Q01DX001 (ip), vehicle: saline): 102 % of control

O=C(CNC(=O)Nc1nccs1)N/N=C/c1ccc(Cl)cc1
T/C [32]: 106 % of control
T/C [12]: 89 % of control

CC1CCC(OC(C[N+](=O)[O-])C(Cl)(Cl)Cl)CC1 (configuration not stated)
T/C [12]: 93 % of control
T/C [29]: 106 % of control
T/C [13]: 91 % of control
T/C [30]: 101 % of control
T/C [26]: 90 % of control
T/C [31]: 104 % of control

CC1(C)CC(=O)N(c2ccccc2)N1
T/C [7]: 94 % of control
T/C [9]: 103 % of control
T/C [11]: 107 % of control

CC(C)(Oc1ccc(Cl)cc1)C(=O)O (tested in a mixture with another compound)
T/C [2]: 94 % of control
T/C [4]: 91 % of control
T/C [5]: 91 % of control

CSc1ccc(NC(=O)Nc2cc(C)ccc2Cl)cc1
T/C [6]: 86 % of control
T/C [8]: 93 % of control
T/C [10]: 88 % of control

CCOC(=O)C1CCc2ccccc2CC1
T/C (dose: 200.0 mg/kg/injection, schedule: Q04DX003 (ip), vehicle: acetone): 100 % of control

C=C1CC23CC[C@H]4[C@@](C)(CCC[C@@]4(C)C(=O)OC4OC(CO)C(O)C(O)C4O)[C@@H]2CC[C@@]1(OC1OC(CO)C(O)C(O)C1OC1OC(CO)C(O)C(O)C1O)C3 (some centres not stated)
T/C [23]: 101 % of control
T/C [24]: 93 % of control
T/C [25]: 96 % of control

CCCCCCCC(=O)[O][Pb]([CH2]C)([CH2]C)[CH2]C
T/C (dose: 12.5 mg/kg/injection, schedule: Q04DX002 (ip), vehicle: DMSO): 114 % of control

C[Si](C)(C)OSc1ccccc1[N+](=O)[O-]
T/C (dose: 12.5 mg/kg/injection, schedule: Q01DX009 (ip), vehicle: Klucel (hydroxypropylcellulose) (HPC)): 93 % of control
T/C [28]: 92 % of control
T/C [27]: 93 % of control
T/C [6]: 104 % of control
T/C [8]: 95 % of control
T/C [10]: 97 % of control

Cc1cc2oc(=O)c3c(c2c(O)c1CN1CCOCC1)CCCC3
T/C [17]: 96 % of control
T/C [19]: 98 % of control

CCC/C=C/CCCCCC
T/C [32]: 93 % of control
T/C [12]: 93 % of control
T/C [13]: 104 % of control

CCCCCCCCCCCCCCCCCCSCCOCCSCCCCCCCCCCCCCCCCCC
T/C [14]: 87 % of control
T/C [15]: 88 % of control

CCOC(=O)N(OCc1ccccc1)P(=O)(N1CC1(C)C)N1CC1(C)C (configuration not stated)
T/C (dose: 100.0 mg/kg/injection, schedule: Q04DX002 (ip), vehicle: saline): 158 % of control
T/C (dose: 200.0 mg/kg/injection, schedule: Q04DX002 (ip), vehicle: saline): 153 % of control

NCCCCC(NC(=O)OCc1ccccc1)C(=O)CCl (configuration not stated)
T/C (dose: 10.0 mg/kg/injection, schedule: Q04DX002 (ip), vehicle: saline): 109 % of control
T/C (dose: 20.0 mg/kg/injection, schedule: Q04DX002 (ip), vehicle: saline): 95 % of control

Nc1c(F)c(F)c(N=Nc2ccccc2)c(F)c1F
T/C [17]: 95 % of control
T/C [18]: 96 % of control
T/C [19]: 95 % of control
